Experimental data: US11040954B1, “CXCR3 receptor agonists” (RECEPTOS LLC, priority 2016, dated 2021)

Target: T1, CXCR3 (Homo sapiens, UniProt P49682)
T1 construct: host or cells: CHO-K1 (cAMP Hunter CHOK1 CXCR3 Gi cell line)
T1 sequence (P49682 1-368): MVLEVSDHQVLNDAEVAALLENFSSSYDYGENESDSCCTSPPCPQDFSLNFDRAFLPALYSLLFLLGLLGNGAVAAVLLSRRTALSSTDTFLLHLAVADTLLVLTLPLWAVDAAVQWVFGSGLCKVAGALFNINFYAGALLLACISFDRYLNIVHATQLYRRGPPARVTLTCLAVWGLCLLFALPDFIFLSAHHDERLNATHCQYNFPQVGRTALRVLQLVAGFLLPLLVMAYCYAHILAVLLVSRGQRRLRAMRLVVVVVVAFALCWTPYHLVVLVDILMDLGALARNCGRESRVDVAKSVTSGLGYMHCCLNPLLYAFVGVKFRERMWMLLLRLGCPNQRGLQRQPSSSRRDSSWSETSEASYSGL
Test: CXCR3 cAMP agonist assay (cAMP Hunter CHOK1 CXCR3 Gi cell line, forskolin-stimulated, HitHunter cAMP detection)
Assay type: cell-based
Conditions: cAMP Hunter CHOK1 CXCR3 Gi cells, 20 μM forskolin, 30 minutes; read-out: Activity (CXCR3 cAMP agonist assay compound EC50)
In short: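 CHOK1 cells expressing human CXCR3 with Gi coupling, 50,000/well in suspension in HBSS/10 mM HEPES/0.1% BSA pH 7.4, were co-treated with 20 μM forskolin and compound (12-point, 0-10 μM, 1% DMSO) for 30 min. cAMP was read by enzyme-complementation luminescence; CXCL11 dose response set maximum efficacy.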

Structure (SMILES) | EC50 [nM]
CC(C)(C)CC1CCCCN1C(=O)CCC(=O)N1Cc2ccccc2C[C@H]1C(=O)N[C@@H](CCN)C(=O)Nc1ccc(Cl)c(Cl)c1F (some centres unmarked) [Compound 15-14] | 50 to 250
NCC[C@H](NC(=O)[C@@H]1Cc2ccccc2CN1C(=O)CCC(=O)N1CCCCCC1)C(=O)Nc1ccc(Cl)c(Cl)c1F [Compound 15-15] | < 50
COCC1CCCCN1C(=O)CCC(=O)N1Cc2ccccc2C[C@H]1C(=O)N[C@@H](CCN)C(=O)Nc1ccc(Cl)c(Cl)c1F (some centres unmarked) [Compound 15-16] | < 50
CN(C)CC1CCCCN1C(=O)CCC(=O)N1Cc2ccccc2C[C@H]1C(=O)N[C@@H](CCN)C(=O)Nc1ccc(Cl)c(Cl)c1F (some centres unmarked) [Compound 15-17] | > 500
NCC[C@H](NC(=O)[C@@H]1Cc2ccccc2CN1C(=O)CCC(=O)N1CCCC[C@@H]1CO)C(=O)Nc1ccc(Cl)c(Cl)c1F [Compound 15-18] | < 50
NCC[C@H](NC(=O)[C@@H]1Cc2ccccc2CN1C(=O)CCC(=O)N1CCCC[C@H]1CO)C(=O)Nc1ccc(Cl)c(Cl)c1F [Compound 15-19] | 50 to 250
CC(C)CC1CCCCN1C(=O)CCC(=O)N1Cc2ccccc2C[C@H]1C(=O)N[C@@H](CCN)C(=O)Nc1ccc(Cl)c(Cl)c1F (some centres unmarked) [Compound 15-20] | < 50
CC(C)C1CCCCN1C(=O)CCC(=O)N1Cc2ccccc2C[C@H]1C(=O)N[C@@H](CCN)C(=O)Nc1ccc(Cl)c(Cl)c1F (some centres unmarked) [Compound 15-21] | 50 to 250
NCC[C@H](NC(=O)[C@@H]1Cc2ccccc2CN1C(=O)CCC(=O)N1CCCCC1C1CCC1)C(=O)Nc1ccc(Cl)c(Cl)c1F (some centres unmarked) [Compound 15-22] | < 50
CCC(CC)C1CCCCN1C(=O)CCC(=O)N1Cc2ccccc2C[C@H]1C(=O)N[C@@H](CCN)C(=O)Nc1ccc(Cl)c(Cl)c1F (some centres unmarked) [Compound 15-23] | 50 to 250
NCC[C@H](NC(=O)[C@@H]1Cc2ccccc2CN1C(=O)CCC(=O)N1CCC2(CC1)CC(F)(F)C2)C(=O)Nc1ccc(Cl)c(Cl)c1F [Compound 15-24] | 250 to 500
NCC[C@H](NC(=O)[C@@H]1Cc2ccccc2CN1C(=O)CCC(=O)N1CCCC(CF)C1)C(=O)Nc1ccc(Cl)c(Cl)c1F (some centres unmarked) [Compound 15-25] | < 50
CO[C@H]1CCCN(C(=O)CCC(=O)N2Cc3ccccc3C[C@H]2C(=O)N[C@@H](CCN)C(=O)Nc2ccc(Cl)c(Cl)c2F)C1 [Compound 15-26] | < 50
CO[C@@H]1CCCN(C(=O)CCC(=O)N2Cc3ccccc3C[C@H]2C(=O)N[C@@H](CCN)C(=O)Nc2ccc(Cl)c(Cl)c2F)C1 [Compound 15-27] | < 50
CN(C)CCN(C)C(=O)CCC(=O)N1Cc2ccccc2C[C@H]1C(=O)N[C@@H](CCN)C(=O)Nc1ccc(Cl)c(Cl)c1F [Compound 15-28] | > 500
CC1CN(C(=O)CCC(=O)N2Cc3ccccc3C[C@H]2C(=O)N[C@@H](CCN)C(=O)Nc2ccc(Cl)c(Cl)c2F)CC1C (some centres unmarked) [Compound 15-29] | < 50
CN(C)[C@H]1CCN(C(=O)CCC(=O)N2Cc3ccccc3C[C@H]2C(=O)N[C@@H](CCN)C(=O)Nc2ccc(Cl)c(Cl)c2F)C1 [Compound 15-30] | 50 to 250
CN(C)[C@@H]1CCN(C(=O)CCC(=O)N2Cc3ccccc3C[C@H]2C(=O)N[C@@H](CCN)C(=O)Nc2ccc(Cl)c(Cl)c2F)C1 [Compound 15-31] | < 50
CC(C)(C)C1CCCCN1C(=O)CCC(=O)N1Cc2ccccc2C[C@H]1C(=O)N[C@@H](CCN)C(=O)Nc1ccc(Cl)c(Cl)c1F (some centres unmarked) [Compound 15-32] | 250 to 500
NCC[C@H](NC(=O)[C@@H]1Cc2ccccc2CN1C(=O)CCC(=O)N1CCC2(CCC2)C1)C(=O)Nc1ccc(Cl)c(Cl)c1F [Compound 15-33] | < 50
CC(C)(C)C1CCN(C(=O)CCC(=O)N2Cc3ccccc3C[C@H]2C(=O)N[C@@H](CCN)C(=O)Nc2ccc(Cl)c(Cl)c2F)C1 (some centres unmarked) [Compound 15-34] | < 50
CCN(C(=O)CCC(=O)N1Cc2ccccc2C[C@H]1C(=O)N[C@@H](CCN)C(=O)Nc1ccc(Cl)c(Cl)c1F)C(C)(C)C [Compound 15-35] | < 50
CN(C(=O)CCC(=O)N1Cc2ccccc2C[C@H]1C(=O)N[C@@H](CCN)C(=O)Nc1ccc(Cl)c(Cl)c1F)C1CCCC1 [Compound 15-36] | < 50
